Test results taken from patent publication US4404138A, “3-[2-(Azabicyclo) ethyl]-1,2,3,4-tetrahydro-5H-[1]benzopyrano[3,4-c]pyridin-5-ones” (Warner-Lambert Company, priority 1982, dated 1983).
Counter-ions that a name gives are not always drawn.

Test system: Conscious guinea pigs exposed to an aerosol of methacholine
Assay: Methacholine aerosol collapse time in conscious guinea pigs (anticholinergic test)
Format: in vivo
Details: 25 mg/kg intraperitoneally, 10 minutes methacholine aerosol; for (Minutes Protection): collapse time, Control 1.9 to 2.0
Description: Conscious guinea pigs, six at a time, are put into a sealed chamber and exposed for 10 minutes to an aerosol of methacholine.

| Compound | (Minutes Protection) [min] | (Minutes Protection), given in words (time not given) |
| --- | --- | --- |
| O=c1oc2cc3c(cc2c2c1CN(CCN1CC4CCC(CC4)C1)CC2)OCO3 [R1+R2=OCH2O, R3=H, X=drawing 10, 3-[2-(3-Azabicyclo[3.2.2]non-3-yl)ethyl]-1,2,3,4-tetrahydro-5H-[1,3]benzodioxolo[5',6':5,6]pyrano[3,4-c]pyridin-5-one] | 2.3 |  |
| Cc1cc2oc(=O)c3c(c2cc1Cl)CCN(CCN1CC2CCC(CC2)C1)C3 [R1=Cl, R2=Me, R3=H, X=drawing 10, 3-[2-(3-Azabicyclo[3.2.2]non-3-yl)ethyl]-9-chloro-1,2,3,4-tetrahydro-8-methyl-5H-[1]benzopyrano[3,4-c]pyridin-5-one] | 2.1 |  |
| Cc1cc2oc(=O)c3c(c2cc1Cl)CCN(CCN1CC2CCCC(C2)C1)C3 [R1=Cl, R2=Me, R3=H, X=drawing 12] | 2.6 |  |
| CCOc1cc2oc(=O)c3c(c2cc1OCC)CCN(CCN1CC2CCC(CC2)C1)C3 [R1=EtO, R2=EtO, R3=H, X=drawing 10, 3-[2-(3-Azabicyclo[3.2.2]non-3-yl)ethyl]-1,2,3,4-tetrahydro-8,9-diethoxy-5H-[1]benzopyrano[3,4-c]pyridin-5-one] | 6.3 |  |
| O=c1oc2c(ccc3ccccc32)c2c1CN(CCN1CC3CCC(CC3)C1)CC2 [R1=H, R2+R3=CH CHCHCH, X=drawing 10, 2-[2-(3-Azabicyclo[3.2.2]non-3-yl)ethyl]-1,2,3,4-tetrahydro-12H-naphtho[2',1',:5,6]pyrano[3,4-c]pyridin-12-one dihydrochloride] | 2.7 |  |
| CC(C)c1ccc2c3c(c(=O)oc2c1)CN(CCN1CC2CCC(CC2)C1)CC3.Cl.Cl [R1=H, R2=CHMe2, R3=H, X=drawing 10, 3-[2-(3-Azabicyclo[3.2.2]non-3-yl)ethyl]-1,2,3,4-tetrahydro-8-(1-methylethyl)-5H-[1]benzopyrano[3,4-c]pyridin-5-one dihydrochloride] | 6.2 |  |
| CC(C)(C)c1ccc2c3c(c(=O)oc2c1)CN(CCN1CC2CCC(CC2)C1)CC3.Cl.Cl [R1=H, R2=CMe3, R3=H, X=drawing 10, 3-[2-(3-Azabicyclo[3.2.2]non-3-yl)ethyl]-8-(1,1-dimethylethyl)-1,2,3,4-tetrahydro-5H-[1]benzopyrano[3,4-c]pyridin-5-one, dihydrochloride] | 3.4 |  |
| CCc1ccc2c3c(c(=O)oc2c1)CN(CCN1CC2CCC(CC2)C1)CC3.Cl.Cl [R1=H, R2=Et, R3=H, X=drawing 10, 3-(2-(3-Azabicyclo[3,2,2]non-3-yl)ethyl]-8-ethyl-1,2,3,4-tetrahydro-5H-benzopyrano[3,4-c]pyridin-5-one, dihydrochloride] | 6.8 |  |
| O=c1oc2ccccc2c2c1CN(CCN1CC3CCC(CC3)C1)CC2 [R1=H, R2=H, R3=H, X=drawing 10, 3-[2-(3-Azabicyclo[3.2.2]non-3-yl)ethyl]-1,2,3,4-tetrahydro-5H-[1]benzopyrano[3,4-c]pyridin-5-one] | 5.2 |  |
| O=c1oc2ccccc2c2c1CN(CCN1CC3CCCC(C3)C1)CC2 [R1=H, R2=H, R3=H, X=drawing 12, 3-[2-(3-Azabicyclo[3.3.1]non-3-yl)ethyl]-1,2,3,4-tetrahydro-5H-[1]benzopyrano[3,4-c]pyridin-5-one] | 3.3 |  |
| Cc1ccc2c3c(c(=O)oc2c1)CN(CCN1CC2CCC(CC2)C1)CC3 [R1=H, R2=Me, R3=H, X=drawing 10, 3-[2-(3-Azabicyclo[3.2.2]non-3-yl)ethyl]-1,2,3,4-tetrahydro-8-methyl-5H-[1]benzopyrano[3,4-c]pyridin-5-one] | 5.0 |  |
| Cc1ccc2c3c(c(=O)oc2c1)CN(CCN1CC2CCC1CC2)CC3 [R1=H, R2=Me, R3=H, X=drawing 11, 3-[2-(2-Azabicyclo[2.2.2]oct-2-yl)ethyl]-1,2,3,4-tetrahydro-8-methyl-5H-[1]benzopyrano[3,4-c]pyridin-5-one] | 2.3 |  |
| Cc1ccc2c3c(c(=O)oc2c1)CN(CCN1CC2CCCC(C2)C1)CC3 [R1=H, R2=Me, R3=H, X=drawing 12, 3-[2-(3-Azabicyclo[3.3.1]non-3-yl)ethyl]-1,2,3,4-tetrahydro-8-methyl-5H-[1]benzopyrano[3,4-c]pyridin-5-one] | 3.1 |  |
| COc1ccc2c3c(c(=O)oc2c1)CN(CCN1CC2CCC(CC2)C1)CC3.Cl.Cl [R1=H, R2=MeO, R3=H, X=drawing 10, 3-[2-(3-Azabicyclo[3.2.2]non-3-yl)ethyl]-1,2,3,4-tetrahydro-8-methoxy-5H-[1]benzopyrano[3,4-c]pyridin-5-one, dihydrochloride] | 6.0 |  |
| COc1ccc2c3c(c(=O)oc2c1)CN(CCN1CC2CCC1CC2)CC3 [R1=H, R2=MeO, R3=H, X=drawing 11, 3-[2-(2-Azabicyclo[2.2.2]oct-2-yl)ethyl]-1,2,3,4-tetrahydro-8-methoxy-5H-[1]benzopyrano[3,4-c]pyridin-5-one] | 10.0 |  |
| COc1ccc2c3c(c(=O)oc2c1)CN(CCN1CC2CCCC(C2)C1)CC3 [R1=H, R2=MeO, R3=H, X=drawing 12, 3-[2-(3-Azabicyclo[3.3.1]non-3-yl)ethyl]-1,2,3,4-tetrahydro-8-methoxy-5H-[1]benzopyrano[3,4-c]pyridin-5-one] | 7.3 |  |
| COc1ccc2c3c(c(=O)oc2c1OC)CN(CCN1CC2CCC(CC2)C1)CC3.Cl.Cl [R1=H, R2=MeO, R3=MeO, X=drawing 10, 3-[2-(3-Azabicyclo[3.2.2]non-3-yl)ethyl]-1,2,3,4-tetrahydro-7,8-dimethoxy-5H-[1]benzopyrano[3,4-c]pyridin-5-one dihydrochloride] | 3.0 |  |
| O=c1oc2cc(O)ccc2c2c1CN(CCN1CC3CCC(CC3)C1)CC2 [R1=H, R2=OH, R3=H, X=drawing 10] | 6.1 |  |
| Cl.Cl.O=c1oc2cc(-c3ccccc3)ccc2c2c1CN(CCN1CC3CCC(CC3)C1)CC2 [R1=H, R2=Ph, R3=H, X=drawing 10, 3-[2-(3-Azabicyclo[3.2.2]non-3-yl)ethyl]-1,2,3,4-tetrahydro-8-phenyl-5H-[1]benzopyrano[3,4-c]pyridin-5-one, dihydrochloride] | 2.1 |  |
| Cc1cc2oc(=O)c3c(c2cc1C)CCN(CCN1CC2CCC(CC2)C1)C3 [R1=Me, R2=Me, R3=H, X=drawing 10, 3-[2-(3-Azabicyclo[3.2.2]non-3-yl)ethyl]-1,2,3,4-tetrahydro-8,9-dimethyl-5H-[1]benzopyrano[3,4-c]pyridin-5-one] | 5.1 |  |
| COc1cc2oc(=O)c3c(c2cc1OC)CCN(CCN1CC2CCC(CC2)C1)C3.Cl.Cl [R1=MeO, R2=MeO, R3=H, X=drawing 10, 3-[2-(3-Azabicyclo[3.2.2]non-3-yl)ethyl]-1,2,3,4-tetrahydro-8,9-dimethoxy-5H-[1]benzopyrano[3,4-c]pyridin-5-one dihydrochloride] |  | Active |
| COc1cc2oc(=O)c3c(c2cc1OC)CCN(CCN1CC2CCC1CC2)C3 [R1=MeO, R2=MeO, R3=H, X=drawing 11, 3-[2-(2-Azabicyclo[2.2.2]oct-2-yl)ethyl]-1,2,3,4-tetrahydro-8,9-dimethoxy-5H-[1]benzopyrano[3,4-c]pyridine-5-one] | 7.6 |  |
